Calls of active or inactive are those of the source. No cut-off for these calls is given here.
Legend:
MCF7 [1] = experiment: Downregulation of progesterone receptor expression in human MCF7 cells assessed as protein stability by measuring reduction in half life measured up to 24 hrs in presence of cycloheximide by Western blotting analysis; format: functional, cell-based
[2] = Toxicity in BALB/c mouse xenografted with human MCF7 cells assessed as effect on lung at 5 to 20 mg/kg, […] every other day measured after 14 days by hematoxylin and eosin staining based analysis; format: organism-based; settings: in vivo, 336 h, dose 5-20 mg/kg, time 14 day
MCF7 [3] = experiment: Antitumor activity against human MCF7 cells xenografted in BALB/c mouse assessed as reduction of ErbB2 phosphorylation in tumor tissue at 5 to 20 mg/kg, ip administered via gavage every other day for 14 days by immunohistochemistry analysis; format: functional, organism-based; settings: dose 5-20 mg/kg, time 14.0 day

Structure (SMILES): Cc1n[nH]c(C)c1Oc1c(O)cc(O)c2c(=O)cc(-c3ccc(N4CCN(c5ccccn5)CC4)cc3)oc12
- Activity (MCF7 [1]): Active
- Activity [2]: Non-Toxic
- Activity (MCF7 [3]): Active
